Measured values: US20260083851A1 (AVILAR THERAPEUTICS, INC., priority 2022, published 2026)
Where two headings read alike, the source gives them in different places. Positions of bridges follow the written chain, without caps; N, C: chain ends. Non-standard residues stand in square brackets, D forms with d. Residues, ends and D or L forms follow the SMILES beside them. ξ: configuration not given here. ξPro(4-NH2) = NC1CNC(C(=O)O)C1

Assays:
[1] = target: T1, ASGP receptor (biotinylated ASGPR) (Homo sapiens, UniProt P07306); format: binding; settings: SPR
T1 construct: biotin (biotinylated)
T1 sequence (P07306 1-291): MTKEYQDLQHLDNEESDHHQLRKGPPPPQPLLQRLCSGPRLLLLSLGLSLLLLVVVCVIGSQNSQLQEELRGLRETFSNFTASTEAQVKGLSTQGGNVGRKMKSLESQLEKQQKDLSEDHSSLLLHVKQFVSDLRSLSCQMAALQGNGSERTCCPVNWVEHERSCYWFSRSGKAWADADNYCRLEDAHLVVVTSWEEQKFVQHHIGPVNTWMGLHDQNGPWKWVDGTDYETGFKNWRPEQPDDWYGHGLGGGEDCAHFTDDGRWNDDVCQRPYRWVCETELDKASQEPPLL

IgG = IgG SPR binding; settings: second table, read-out: IgG KD
[2] = Biacore 8K, 25° C., Table 1E, read-out: ASGPR KD
[3] = Table 2, read-out: ASGPR SPR Binding KD

Compound | Kd [1, 2] [µM] | Kd (IgG) [µM] | further results
O[C@@H]1[C@@H](Oc2cccc(C(F)(F)F)n2)CN(c2ccncn2)C[C@@H]1O [Compound A248] |  |  | Kd ([1]; Biacore 8K, 25° C., Table 1D, read-out: ASGPR KD): < 10 µM
O[C@@H]1[C@H](O)[C@@H](Oc2cccc(C(F)(F)F)n2)CO[C@@H]1CN1CCN(c2cnccn2)CC1 [Compound A248] |  |  | Kd ([1]; Biacore 8K, 25° C., Table 1C, read-out: ASGPR KD): < 10 µM
CC1(C)C(=O)c2ccc(-c3cnc(N4CCN5C(=O)N(CCOCCOCCOCC(=O)NC(COCCC(=O)NCCOCCOCCOCCOC[C@H]6OC[C@H](Nc7cncc(C(F)(F)F)n7)[C@@H](O)[C@H]6O)COCCC(=O)NCCOCCOCCOCCOC[C@H]6OC[C@H](Nc7cncc(C(F)(F)F)n7)[C@@H](O)[C@H]6O)C[C@@H]5C4)nc3)nc2N1Cc1cccnc1C#N [compound 19] |  |  | Kd [1, 3]: < 0.1 µM
CC1(C)C(=O)c2ccc(-c3cnc(N4CCN5C(=O)N(CCCNC(=O)c6ccc7c(c6)C(F)(F)c6cc(C(=O)NC[C@H]8OC[C@H](Nc9cncc(C(F)(F)F)n9)[C@@H](O)[C@H]8O)ccc6-7)C[C@@H]5C4)nc3)nc2N1Cc1cccnc1C#N [compound 20] |  |  | Kd [1, 3]: < 0.1 µM
O=C(CCOCC(COCCC(=O)NC[C@H]1OC[C@H](Nc2cncc(C(F)(F)F)n2)[C@@H](O)[C@H]1O)NCC(=O)N1CCN(Cc2ccc(-c3c[nH]c4ccncc34)c(OCCc3ccc(-c4cccc5ccncc45)cc3)c2)CC1)NC[C@H]1OC[C@H](Nc2cncc(C(F)(F)F)n2)[C@@H](O)[C@H]1O [compound 21] |  |  | Kd [1, 3]: < 0.1 µM
CC1(C)C(=O)c2ccc(-c3cnc(N4CCN5C(=O)N(CCOCCOCCOCC(=O)NC(COCCC(=O)NCCOCCOCCOCCOC[C@H]6OC[C@H](Nc7nccc(C(F)(F)F)n7)[C@@H](O)[C@H]6O)COCCC(=O)NCCOCCOCCOCCOC[C@H]6OC[C@H](Nc7nccc(C(F)(F)F)n7)[C@@H](O)[C@H]6O)C[C@@H]5C4)nc3)nc2N1Cc1cccnc1C#N [compound 22] |  |  | Kd [1, 3]: < 0.1 µM
CC(C)CC1NC(=O)C(Cc2cnc[nH]2)NC(=O)C(Cc2c[nH]c3ccccc23)NC(=O)C(C)NC(=O)C2CSSCC(NC(=O)C(Cc3c[nH]c4ccccc34)NC(=O)C(C(C)C)NC(=O)C(CC(C)C)NC(=O)C(CCC(=O)O)NC(=O)CNC1=O)C(=O)NC(C(C)O)C(=O)N1CCCC1C(=O)N1CC(N)CC1C(=O)NC(C)C(=O)N2 (stereo not drawn) [compound 54] (cyclo(GELVWCTP[ξPro(4-NH2)]ACAWHL); disulfide 6-11; configuration not given here) |  | < 0.1 | 
CC(C)CC1NC(=O)C(Cc2cnc[nH]2)NC(=O)C(Cc2c[nH]c3ccccc23)NC(=O)C(C)NC(=O)C2CSSCC(NC(=O)C(Cc3c[nH]c4ccccc34)NC(=O)C(C(C)C)NC(=O)C(CC(C)C)NC(=O)C(CCC(=O)O)NC(=O)CNC1=O)C(=O)NC(C(C)O)C(=O)N1CCCC1C(=O)N1CC(N)CC1C(=O)NC(CC(N)=O)C(=O)N2 (stereo not drawn) [compound 55] (cyclo(GELVWCTP[ξPro(4-NH2)]NCAWHL); disulfide 6-11; configuration not given here) |  | < 0.1 | 
CC(C)CC1NC(=O)C(Cc2cnc[nH]2)NC(=O)C(Cc2c[nH]c3ccccc23)NC(=O)C(C)NC(=O)C2CSSCC(NC(=O)C(Cc3c[nH]c4ccccc34)NC(=O)C(C(C)C)NC(=O)C(CC(C)C)NC(=O)C(CCC(=O)O)NC(=O)CNC1=O)C(=O)NC(C(C)O)C(=O)N1CCCC1C(=O)N1CC(N)CC1C(=O)NC(CC(=O)O)C(=O)N2 (stereo not drawn) [compound 56] |  | < 0.1 | 
CC(C)CC1NC(=O)C(Cc2cnc[nH]2)NC(=O)C(Cc2c[nH]c3ccccc23)NC(=O)C(C)NC(=O)C2CSSCC(NC(=O)C(Cc3c[nH]c4ccccc34)NC(=O)C(C(C)C)NC(=O)C(CC(C)C)NC(=O)C(CCC(=O)O)NC(=O)CNC1=O)C(=O)NC(C(C)O)C(=O)N1CCCC1C(=O)N1CC(N)CC1C(=O)NC(CC(=O)O)C(=O)N2 (stereo not drawn) [compound 58] |  | < 0.1 | 
CC(C)CC1NC(=O)C(C)NC(=O)CNC(=O)C(CC(C)C)NC(=O)C(Cc2cnc[nH]2)NC(=O)C(Cc2c[nH]c3ccccc23)NC(=O)C(C)NC(=O)C2CSSCC(NC(=O)C(Cc3c[nH]c4ccccc34)NC(=O)C(C(C)C)NC1=O)C(=O)NC(C(C)O)C(=O)N1CCCC1C(=O)N1CC(N)CC1C(=O)NC(CC(=O)O)C(=O)N2 (stereo not drawn) [compound 59] (cyclo(GALVWCTP[ξPro(4-NH2)]DCAWHL); disulfide 6-11; configuration not given here) |  | < 0.1 | 
CC(C)CC1NC(=O)C(Cc2cnc[nH]2)NC(=O)C(Cc2c[nH]c3ccccc23)NC(=O)C(C)NC(=O)C2CSSCC(NC(=O)C(Cc3c[nH]c4ccccc34)NC(=O)C(C(C)C)NC(=O)C(CC(C)C)NC(=O)C(CCC(N)=O)NC(=O)CNC1=O)C(=O)NC(C(C)O)C(=O)N1CCCC1C(=O)N1CC(N)CC1C(=O)NC(CC(=O)O)C(=O)N2 (stereo not drawn) [compound 60] (cyclo(GQLVWCTP[ξPro(4-NH2)]DCAWHL); disulfide 6-11; configuration not given here) |  | < 0.1 | 
CC(C)CC1NC(=O)C(Cc2cnc[nH]2)NC(=O)C(Cc2c[nH]c3ccccc23)NC(=O)C(C)NC(=O)C2CSSCC(NC(=O)C(Cc3c[nH]c4cc(Cl)ccc34)NC(=O)C(C(C)C)NC(=O)C(CC(C)C)NC(=O)C(CCC(=O)O)NC(=O)CNC1=O)C(=O)NC(C(C)O)C(=O)N1CCCC1C(=O)N1CC(N)CC1C(=O)NC(CC(=O)O)C(=O)N2 (stereo not drawn) [compound 61] |  | < 0.1 | 
CC(C)CC1NC(=O)C(Cc2cnc[nH]2)NC(=O)C(Cc2c[nH]c3ccccc23)NC(=O)C(C)NC(=O)C2CSSCC(NC(=O)C(Cc3c[nH]c4ccc(Cl)cc34)NC(=O)C(C(C)C)NC(=O)C(CC(C)C)NC(=O)C(CCC(=O)O)NC(=O)CNC1=O)C(=O)NC(C(C)O)C(=O)N1CCCC1C(=O)N1CC(N)CC1C(=O)NC(CC(=O)O)C(=O)N2 (stereo not drawn) [compound 62] |  | < 0.1 | 
CC(C)CC1NC(=O)C(Cc2cnc[nH]2)NC(=O)C(Cc2c[nH]c3ccccc23)NC(=O)C(C)NC(=O)C2CSSCC(NC(=O)C(Cc3c[nH]c4ccccc34)NC(=O)C(C(C)C)NC(=O)C(CC(C)C)NC(=O)C(CCC(=O)O)NC(=O)CNC1=O)C(=O)NC(C(C)O)C(=O)N1CCCC1C(=O)N1CC(N)CC1C(=O)NC(CC(=O)O)C(=O)N2 (stereo not drawn) [compound 63] |  | < 0.1 | 

More lines, main results first:

Kd [1, 2] [µM] | Kd (IgG) [µM] | Compound | further results
< 10 |  | C[C@H]1O[C@H](COc2ccc(C(=O)O)nn2)[C@H](Oc2cccc(C(F)(F)F)n2)[C@@H](O)[C@H]1O [A444] | 
10 to 100 |  | C[C@H]1O[C@H](COc2cccc(C(F)(F)F)n2)[C@H](O)[C@@H](O)[C@H]1O [A445] | 
< 10 |  | C[C@H]1O[C@H](COc2ccncn2)[C@H](Oc2cccc(C(F)(F)F)n2)[C@@H](O)[C@H]1O [A446] | 
< 10 |  | C[C@H]1O[C@H](COc2ncccn2)[C@H](Oc2cccc(C(F)(F)F)n2)[C@@H](O)[C@H]1O [A447] | 
< 10 |  | C[C@H]1O[C@H](c2nnc(-c3ccccc3)o2)[C@H](Oc2cccc(C(F)(F)F)n2)[C@@H](O)[C@H]1O [A448] | 
< 10 |  | C[C@H]1O[C@H](COc2cnccn2)[C@H](Oc2cccc(C(F)(F)F)n2)[C@@H](O)[C@H]1O [A449] | 
< 10 |  | C[C@H]1O[C@H](COc2cccc(C(F)(F)F)n2)[C@H](Oc2cnccn2)[C@@H](O)[C@H]1O [A450] | 
< 10 |  | C[C@H]1O[C@H](c2nc(-c3ccccc3)no2)[C@H](Oc2cccc(C(F)(F)F)n2)[C@@H](O)[C@H]1O [A451] | 
< 10 |  | O=C(O)c1cnc(OC[C@@]23CO[C@@H](O2)[C@H](Nc2cncc(C(F)(F)F)n2)[C@@H](O)[C@H]3O)cn1 [A452] | 
